Measured values as given in the NIST ThermoML archive (doi:10.1021/acs.jced.8b00132).
Where “and” joins values, the source holds several entries; their conditions need not be identical. Identical values can stand only once.

O=C(C(F)(F)C(F)(F)F)C(F)(C(F)(F)F)C(F)(F)F [dodecafluoro-2-methylpentan-3-one]
Settings | thermal conductivity
300.81 K, 35 kPa, Gas, hot wire | 0.0117 W/m/K and 0.01167 W/m/K
300.82 K, 27 kPa, Gas, hot wire | 0.01167 W/m/K
301.02 K, 35 kPa, Gas, hot wire | 0.01175 W/m/K and 0.01169 W/m/K
301.02 K, 40 kPa, Gas, hot wire | 0.01176 W/m/K and 0.01171 W/m/K
301.04 K, 26 kPa, Gas, hot wire | 0.01169 W/m/K
301.04 K, 27 kPa, Gas, hot wire | 0.01166 W/m/K
301.12 K, 68548 kPa, Liquid, transient hot wire | 0.07848 W/m/K
301.12 K, 68619 kPa, Liquid, transient hot wire | 0.07853 W/m/K
301.16 K, 59412 kPa, Liquid, transient hot wire | 0.07633 W/m/K
301.16 K, 59421 kPa, Liquid, transient hot wire | 0.07635 W/m/K
301.2 K, 15856 kPa, Liquid, transient hot wire | 0.06469 W/m/K
301.2 K, 15861 kPa, Liquid, transient hot wire | 0.06419 W/m/K
301.2 K, 48052 kPa, Liquid, transient hot wire | 0.07348 W/m/K
301.21 K, 48059 kPa, Liquid, transient hot wire | 0.07348 W/m/K
301.23 K, 38563 kPa, Liquid, transient hot wire | 0.07045 W/m/K
301.23 K, 38570 kPa, Liquid, transient hot wire | 0.07088 W/m/K
301.25 K, 35 kPa, Gas, hot wire | 0.01177 W/m/K and 0.01172 W/m/K
301.25 K, 40 kPa, Gas, hot wire | 0.01175 W/m/K and 0.01177 W/m/K
301.26 K, 29951 kPa, Liquid, transient hot wire | 0.06831 W/m/K
301.26 K, 29959 kPa, Liquid, transient hot wire | 0.06831 W/m/K
301.27 K, 26 kPa, Gas, hot wire | 0.0117 W/m/K
301.27 K, 27 kPa, Gas, hot wire | 0.01169 W/m/K
301.27 K, 22365 kPa, Liquid, transient hot wire | 0.06588 W/m/K
301.27 K, 22366 kPa, Liquid, transient hot wire | 0.06588 W/m/K
301.29 K, 68411 kPa, Liquid, transient hot wire | 0.07844 W/m/K
301.3 K, 68477 kPa, Liquid, transient hot wire | 0.07847 W/m/K
301.31 K, 15646 kPa, Liquid, transient hot wire | 0.06353 W/m/K
301.32 K, 15647 kPa, Liquid, transient hot wire | 0.06353 W/m/K
301.32 K, 15982 kPa, Liquid, transient hot wire | 0.06426 W/m/K
301.32 K, 68614 kPa, Liquid, transient hot wire | 0.07896 W/m/K
301.33 K, 15978 kPa, Liquid, transient hot wire | 0.06437 W/m/K
301.33 K, 58469 kPa, Liquid, transient hot wire | 0.07677 W/m/K
301.33 K, 68621 kPa, Liquid, transient hot wire | 0.07913 W/m/K
301.34 K, 29983 kPa, Liquid, transient hot wire | 0.06887 W/m/K
301.34 K, 38644 kPa, Liquid, transient hot wire | 0.07116 W/m/K
301.34 K, 38645 kPa, Liquid, transient hot wire | 0.07082 W/m/K
301.34 K, 48192 kPa, Liquid, transient hot wire | 0.07381 W/m/K
301.34 K, 48193 kPa, Liquid, transient hot wire | 0.07385 W/m/K
301.34 K, 58483 kPa, Liquid, transient hot wire | 0.07689 W/m/K
301.35 K, 9734 kPa, Liquid, transient hot wire | 0.06181 W/m/K
301.35 K, 9737 kPa, Liquid, transient hot wire | 0.06163 W/m/K
301.35 K, 29988 kPa, Liquid, transient hot wire | 0.06876 W/m/K
301.35 K, 59394 kPa, Liquid, transient hot wire | 0.07632 W/m/K
301.35 K, 59405 kPa, Liquid, transient hot wire | 0.07636 W/m/K
301.36 K, 186 kPa, Liquid, transient hot wire | 0.05707 W/m/K
301.36 K, 22446 kPa, Liquid, transient hot wire | 0.0654 W/m/K
301.37 K, 186 kPa, Liquid, transient hot wire | 0.05699 W/m/K
301.37 K, 4437 kPa, Liquid, transient hot wire | 0.05962 W/m/K
301.37 K, 4442 kPa, Liquid, transient hot wire | 0.05915 W/m/K
301.37 K, 22450 kPa, Liquid, transient hot wire | 0.06542 W/m/K
301.38 K, 9940 kPa, Liquid, transient hot wire | 0.06178 W/m/K
301.39 K, 94 kPa, Liquid, transient hot wire | 0.05683 W/m/K
301.39 K, 100 kPa, Liquid, transient hot wire | 0.05659 W/m/K
301.39 K, 9943 kPa, Liquid, transient hot wire | 0.06137 W/m/K
301.39 K, 68810 kPa, Liquid, transient hot wire | 0.07913 W/m/K
301.39 K, 68825 kPa, Liquid, transient hot wire | 0.07893 W/m/K
301.4 K, 48039 kPa, Liquid, transient hot wire | 0.0735 W/m/K
301.4 K, 48041 kPa, Liquid, transient hot wire | 0.07342 W/m/K
301.41 K, 182 kPa, Liquid, transient hot wire | 0.057 W/m/K
301.42 K, 181 kPa, Liquid, transient hot wire | 0.05699 W/m/K
301.43 K, 4512 kPa, Liquid, transient hot wire | 0.0591 W/m/K
301.43 K, 4517 kPa, Liquid, transient hot wire | 0.05911 W/m/K
301.43 K, 38558 kPa, Liquid, transient hot wire | 0.0709 W/m/K
301.44 K, 38562 kPa, Liquid, transient hot wire | 0.07087 W/m/K
301.46 K, 29951 kPa, Liquid, transient hot wire | 0.06828 W/m/K
301.47 K, 29958 kPa, Liquid, transient hot wire | 0.0683 W/m/K
301.48 K, 22365 kPa, Liquid, transient hot wire | 0.06549 W/m/K
301.49 K, 22364 kPa, Liquid, transient hot wire | 0.06585 W/m/K
301.49 K, 68338 kPa, Liquid, transient hot wire | 0.07849 W/m/K
301.5 K, 35 kPa, Gas, hot wire | 0.01174 W/m/K
301.5 K, 40 kPa, Gas, hot wire | 0.01178 W/m/K
301.5 K, 41 kPa, Gas, hot wire | 0.01177 W/m/K
301.5 K, 68274 kPa, Liquid, transient hot wire | 0.07839 W/m/K
301.51 K, 35 kPa, Gas, hot wire | 0.01178 W/m/K
301.52 K, 27 kPa, Gas, hot wire | 0.01171 W/m/K
301.53 K, 27 kPa, Gas, hot wire | 0.0117 W/m/K
301.54 K, 121 kPa, Liquid, transient hot wire | 0.05731 W/m/K and 0.05707 W/m/K
301.54 K, 15641 kPa, Liquid, transient hot wire | 0.06381 W/m/K
301.54 K, 15643 kPa, Liquid, transient hot wire | 0.06352 W/m/K
301.54 K, 59383 kPa, Liquid, transient hot wire | 0.07629 W/m/K
301.54 K, 59392 kPa, Liquid, transient hot wire | 0.07615 W/m/K
301.56 K, 34 kPa, Gas, transient hot wire | 0.01199 W/m/K
301.57 K, 34 kPa, Gas, transient hot wire | 0.01211 W/m/K
301.59 K, 15866 kPa, Liquid, transient hot wire | 0.06262 W/m/K
